From patent US12662489B2 (Sitryx Therapeutics Limited, priority 2023, dated 2026)

Key:
[1] = molecular target: T1, MTHFD1 recombinant human enzyme (Homo sapiens, UniProt P11586); assay: MTHFD1 inhibition assay (NAD(P)H-Glo luminescence); conditions: MTHFD1 IC50, recombinant human enzyme 200 nM, NADP, band
T1 sequence (P11586 2-291 limits assumed): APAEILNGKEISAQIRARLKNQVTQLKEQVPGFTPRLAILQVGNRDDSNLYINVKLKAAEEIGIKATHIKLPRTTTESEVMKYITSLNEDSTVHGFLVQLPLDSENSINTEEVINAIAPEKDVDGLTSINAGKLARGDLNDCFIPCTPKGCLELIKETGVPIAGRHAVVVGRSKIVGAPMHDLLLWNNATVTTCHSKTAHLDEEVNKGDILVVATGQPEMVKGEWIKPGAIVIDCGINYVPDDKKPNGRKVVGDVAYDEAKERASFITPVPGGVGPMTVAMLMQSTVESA

[2] = molecular target: T2, MTHFD2 recombinant human enzyme (Homo sapiens, UniProt P13995); assay: MTHFD2 inhibition assay (NAD(P)H-Glo luminescence); conditions: for MTHFD1/MTHFD2 IC50 ratio: selectivity of MTHFD2 inhibition over MTHFD1, band
T2 sequence (P13995 36-350): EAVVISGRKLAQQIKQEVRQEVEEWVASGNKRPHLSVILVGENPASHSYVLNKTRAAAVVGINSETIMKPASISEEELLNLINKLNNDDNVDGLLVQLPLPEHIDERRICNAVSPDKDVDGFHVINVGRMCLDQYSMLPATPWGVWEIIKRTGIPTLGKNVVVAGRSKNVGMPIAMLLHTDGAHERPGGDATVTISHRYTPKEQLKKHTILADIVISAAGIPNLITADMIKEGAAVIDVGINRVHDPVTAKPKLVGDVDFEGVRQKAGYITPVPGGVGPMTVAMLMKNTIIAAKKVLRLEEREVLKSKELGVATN

Row | IC50 [1] [nM] | IC50 [2] [nM] | MTHFD1/MTHFD2 IC50 ratio [2] | SMILES
1 | 10 to 100 | 1 to 10 | J (>30) | CCOc1cc(C(=O)N2CCc3c(c(=O)oc4c(C)c(N5CCN(C)[C@@H](COC)C5)cc(C)c34)C2)c(F)cc1C(=O)NS(=O)(=O)N(C)C1CC1 [Example 269, (R)-N-(N-cyclopropyl-N-methylsulfamoyl)-2-ethoxy-5-fluoro-4-(8-(3-(methoxymethyl)-4-methylpiperazin-1-yl)-7,10-dimethyl-5-oxo-1,3,4,5-tetrahydro-2H-chromeno[3,4-c]pyridine-3-carbonyl)benzamide]
2 | 100 to 1000 | 1 to 10 | J (>30) | COC[C@H]1CN(c2cc(C)c3c4c(c(=O)oc3c2C)CN(C(=O)c2cc(Cl)c(C(=O)NS(=O)(=O)N(C)C)c(N3CC5CC5C3)c2)CC4)CCN1C (stereo partly drawn) [Example 34, 2-(3-azabicyclo[3.1.0]hexan-3-yl)-6-chloro-N-(N,N-dimethylsulfamoyl)-4-(8-((R)-3-(methoxymethyl)-4-methylpiperazin-1-yl)-7,10-dimethyl-5-oxo-1,3,4,5-tetrahydro-2H-chromeno[3,4-c]pyridine-3-carbonyl)benzamide]
3 | 1 to 10 | 1 to 10 | – | COC[C@H]1CN(c2cc(C)c3c4c(c(=O)oc3c2C)CN(C(=O)c2ccc(C(=O)NS(=O)(=O)N(C)C)c(N3CCCC(F)(F)C3)c2F)CC4)CCN1C [Example 78, (R)-2-(3,3-difluoropiperidin-1-yl)-N-(N,N-dimethylsulfamoyl)-3-fluoro-4-(8-(3-(methoxymethyl)-4-methylpiperazin-1-yl)-7,10-dimethyl-5-oxo-1,3,4,5-tetrahydro-2H-chromeno[3,4-c]pyridine-3-carbonyl)benzamide]
4 | 100 to 1000 | 10 to 100 | H (>9.0 to 30) | COC[C@H]1CN(c2cc(Cl)c3c4c(c(=O)oc3c2C)CN(C(=O)c2cc(N(C)C)c(C(=O)NS(=O)(=O)N3CC5(COC5)C3)cc2F)CC4)CCN1C [Example 282, (R)-N-((2-oxa-6-azaspiro[3.3]heptan-6-yl)sulfonyl)-4-(10-chloro-8-(3-(methoxymethyl)-4-methylpiperazin-1-yl)-7-methyl-5-oxo-1,3,4,5-tetrahydro-2H-chromeno[3,4-c]pyridine-3-carbonyl)-2-(dimethylamino)-5-fluorobenzamide]
5 | 1 to 10 | 1 to 10 | F (<3) | COC[C@H]1CN(c2cc(C)c3c4c(c(=O)oc3c2C)CN(C(=O)c2ccc(C(=O)NS(=O)(=O)N(C)C)c(OC3CCC(F)(F)CC3)c2F)CC4)CCN1C [Example 85, (R)-2-((4,4-difluorocyclohexyl)oxy)-N-(N,N-dimethylsulfamoyl)-3-fluoro-4-(8-(3-(methoxymethyl)-4-methylpiperazin-1-yl)-7,10-dimethyl-5-oxo-1,3,4,5-tetrahydro-2H-chromeno[3,4-c]pyridine-3-carbonyl)benzamide]
6 | > 5000 | 100 to 1000 | H (>9.0 to 30) | COC[C@H]1CN(c2ccc3c4c(c(=O)oc3c2C)CN(C(=O)c2cc(N3CC5CC5C3)c(C(=O)NS(=O)(=O)C3(C)CC3)c(C(F)(F)F)c2)CC4)CCN1C (stereo partly drawn) [Example 104, 2-(3-azabicyclo[3.1.0]hexan-3-yl)-4-(8-((R)-3-(methoxymethyl)-4-methylpiperazin-1-yl)-7-methyl-5-oxo-1,3,4,5-tetrahydro-2H-chromeno[3,4-c]pyridine-3-carbonyl)-N-((1-methylcyclopropyl)sulfonyl)-6-(trifluoromethyl)benzamide]
7 | 100 to 1000 | 10 to 100 | G (^ 3 to 9.0) | COC[C@H]1CN(c2ccc3c4c(c(=O)oc3c2C)CN(C(=O)c2ccc(C(=O)NS(=O)(=O)C3(C)CC3)c(N(C)C)c2F)CC4)CCN1C [Example 137, (R)-2-(dimethylamino)-3-fluoro-4-(8-(3-(methoxymethyl)-4-methylpiperazin-1-yl)-7-methyl-5-oxo-1,3,4,5-tetrahydro-2H-chromeno[3,4-c]pyridine-3-carbonyl)-N-((1-methylcyclopropyl)sulfonyl)benzamide]
8 | 10 to 100 | 10 to 100 | G (^ 3 to 9.0) | COC[C@H]1CN(c2cc(C)c3c4c(c(=O)oc3c2C)CN(C(=O)c2cc(N3CCCC3)c(C(=O)NS(=O)(=O)C3(C)CC3)cc2F)CC4)CCN1C [Example 142, (R)-5-fluoro-4-(8-(3-(methoxymethyl)-4-methylpiperazin-1-yl)-7,10-dimethyl-5-oxo-1,3,4,5-tetrahydro-2H-chromeno[3,4-c]pyridine-3-carbonyl)-N-((1-methylcyclopropyl)sulfonyl)-2-(pyrrolidin-1-yl)benzamide]
9 | 10 to 100 | 1 to 10 | – | COC[C@H]1CN(c2cc(C)c3c4c(c(=O)oc3c2C)CN(C(=O)c2ccc(C(=O)NS(=O)(=O)N(C)C)c(N3CCC(F)(F)C3)c2)CC4)CCN1C [Example 82, (R)-2-(3,3-difluoropyrrolidin-1-yl)-N-(N,N-dimethylsulfamoyl)-4-(8-(3-(methoxymethyl)-4-methylpiperazin-1-yl)-7,10-dimethyl-5-oxo-1,3,4,5-tetrahydro-2H-chromeno[3,4-c]pyridine-3-carbonyl)benzamide]
10 | 10 to 100 | 1 to 10 | G (^ 3 to 9.0) | COC[C@H]1CN(c2cc(C)c3c4c(c(=O)oc3c2C)CN(C(=O)c2ccc(C(=O)NS(=O)(=O)C3(C)CC3)c(N(C)C3CCC3)c2F)CC4)CCN1C [Example 38, (R)-2-(cyclobutyl(methyl)amino)-3-fluoro-4-(8-(3-(methoxymethyl)-4-methylpiperazin-1-yl)-7,10-dimethyl-5-oxo-1,3,4,5-tetrahydro-2H-chromeno[3,4-c]pyridine-3-carbonyl)-N-((1-methylcyclopropyl)sulfonyl)benzamide]
11 | 10 to 100 | 1 to 10 | H (>9.0 to 30) | CCOc1c(C(=O)NS(=O)(=O)N2CCCC2)ccc(C(=O)N2CCc3c(c(=O)oc4c(C)c(N5CCN(C)[C@@H](COC)C5)cc(Cl)c34)C2)c1F [Example 258, (R)-4-(10-chloro-8-(3-(methoxymethyl)-4-methylpiperazin-1-yl)-7-methyl-5-oxo-1,3,4,5-tetrahydro-2H-chromeno[3,4-c]pyridine-3-carbonyl)-2-ethoxy-3-fluoro-N-(pyrrolidin-1-ylsulfonyl)benzamide]
12 | 1 to 10 | 1 to 10 | G (^ 3 to 9.0) | COC[C@H]1CN(c2cc(C)c3c4c(c(=O)oc3c2C)CN(C(=O)c2ccc(C(=O)NS(=O)(=O)N(C)C)c(N3CC5CC5C3)c2)CC4)CCN1C (stereo partly drawn) [Example 47, 2-(3-azabicyclo[3.1.0]hexan-3-yl)-N-(N,N-dimethylsulfamoyl)-4-(8-((R)-3-(methoxymethyl)-4-methylpiperazin-1-yl)-7,10-dimethyl-5-oxo-1,3,4,5-tetrahydro-2H-chromeno[3,4-c]pyridine-3-carbonyl)benzamide]
13 | 10 to 100 | 1 to 10 | H (>9.0 to 30) | COC[C@H]1CN(c2cc(C)c3c4c(c(=O)oc3c2C)CN(C(=O)c2ccc(C(=O)NS(=O)(=O)C3(C)CC3)c(N3CC5CC5C3)c2)CC4)CCN1C (stereo partly drawn) [Example 46, 2-(3-azabicyclo[3.1.0]hexan-3-yl)-4-(8-((R)-3-(methoxymethyl)-4-methylpiperazin-1-yl)-7,10-dimethyl-5-oxo-1,3,4,5-tetrahydro-2H-chromeno[3,4-c]pyridine-3-carbonyl)-N-((1-methylcyclopropyl)sulfonyl)benzamide]
14 | 1 to 10 | 10 to 100 | F (<3) | COC[C@H]1CN(c2ccc3c4c(c(=O)oc3c2C)CN(C(=O)c2ccc(C(=O)NS(=O)(=O)N(C)C)c(OC3CCCC3)c2F)CC4)CCN1C [Example 5, (R)-2-(cyclopentyloxy)-N-(N,N-dimethylsulfamoyl)-3-fluoro-4-(8-(3-(methoxymethyl)-4-methylpiperazin-1-yl)-7-methyl-5-oxo-1,3,4,5-tetrahydro-2H-chromeno[3,4-c]pyridine-3-carbonyl)benzamide]
15 | 100 to 1000 | 10 to 100 | G (^ 3 to 9.0) | COC[C@H]1CN(c2ccc3c4c(c(=O)oc3c2C)CN(C(=O)c2cc(N3CCC3)c(C(=O)NS(=O)(=O)N3CCCC3)cc2F)CC4)CCN1C [Example 194, (R)-2-(azetidin-1-yl)-5-fluoro-4-(8-(3-(methoxymethyl)-4-methylpiperazin-1-yl)-7-methyl-5-oxo-1,3,4,5-tetrahydro-2H-chromeno[3,4-c]pyridine-3-carbonyl)-N-(pyrrolidin-1-ylsulfonyl)benzamide]
16 | 100 to 1000 | 10 to 100 | H (>9.0 to 30) | CCOc1cc(C(=O)N2CCc3c(c(=O)oc4c(C)c(N5CCN(C)[C@@H](COC)C5)cc(Cl)c34)C2)c(F)cc1C(=O)NS(=O)(=O)C1(C)CC1 [Example 299, (R)-4-(10-chloro-8-(3-(methoxymethyl)-4-methylpiperazin-1-yl)-7-methyl-5-oxo-1,3,4,5-tetrahydro-2H-chromeno[3,4-c]pyridine-3-carbonyl)-2-ethoxy-5-fluoro-N-((1-methylcyclopropyl)sulfonyl)benzamide]
